Values after ≈ are worked out from the molar mass of the structure shown. Active and inactive are the calls of the source. No cut-off for these calls is given here.
Tests used:
[1] = test system: PC-3; experiment: Antiproliferative activity against human PC3 cells assessed as reduction in cell viability incubated for 5 days by Cell-titer Glo reagent based assay; type: functional
[2] = test system: Liver; experiment: Unbound intrinsic clearance in mouse liver microsomes at 0.5 uM in presence of NADPH incubated for 5 to 30 mins by HPLC-MS/MS method; type: ADME, microsome
[3] = test system: Liver; experiment: Unbound intrinsic clearance in human liver microsomes at 0.5 uM in presence of NADPH incubated for 5 to 30 mins by HPLC-MS/MS method; type: ADME, microsome
[4] = molecular target: Cytochrome P450 3A4 (Homo sapiens, UniProt P08684); experiment: Inhibition of CYP3A4 (unknown origin); type: ADME
[5] = molecular target: Cytochrome P450 2C9 (Homo sapiens, UniProt P11712); experiment: Inhibition of CYP2C9 (unknown origin); type: ADME
[6] = test system: Liver; experiment: Unbound intrinsic clearance in rat liver microsomes at 0.5 uM in presence of NADPH incubated for 5 to 30 mins by HPLC-MS/MS method; type: ADME, microsome
[7] = Half life in Sprague-Dawley rat at 5 mg/kg, iv; type: ADME, organism-based; conditions: in vivo
[8] = Plasma clearance in Sprague-Dawley rat at 5 mg/kg, iv; type: ADME, organism-based
[9] = test system: Rattus norvegicus; experiment: Unbound intrinsic clearance in Sprague-Dawley rat at 5 mg/kg, iv; type: ADME, organism-based; conditions: in vivo
[10] = Oral bioavailability in Sprague-Dawley rat at 5 mg/kg; type: ADME, organism-based; conditions: in vivo
[11] = test system: HCT-116; experiment: Antitumor activity against human HCT116 cells xenografted in CB17 SCID mouse assessed as tumor growth inhibition at 15 mg/kg/day, po dosed daily (3 days on/4 days off per cycle for 3 cycles); type: functional; conditions: HCT-116, po, 72 h, read-out: TGI
[12] = Aqueous solubility of the compound; type: physicochemical; conditions: buffer
[13] = test system: NCI-H345; conditions: Homo sapiens
Description: Antitumor activity against human NCI-H345 cells xenografted in CB17 SCID mouse assessed as tumor growth inhibition

[14] = test system: A2780; conditions: Homo sapiens
Description: Antitumor activity against human A2780 cells xenografted in CB17 SCID mouse assessed as tumor growth inhibition

[15] = test system: ES2; conditions: Homo sapiens
Description: Antitumor activity against human ES2 cells xenografted in CB17 SCID mouse assessed as tumor growth inhibition

[16] = test system: U-87 MG; conditions: Homo sapiens; U-87MG ATCC
Description: Antitumor activity against human U87MG cells xenografted in CB17 SCID mouse assessed as tumor growth inhibition

[17] = test system: H460LM; conditions: Homo sapiens
Description: Antitumor activity against human H460LM cells xenografted in CB17 SCID mouse assessed as tumor growth inhibition

[18] = molecular target: Nicotinamide phosphoribosyltransferase (Homo sapiens, UniProt P43490)
Nicotinamide phosphoribosyltransferase, sequence (P43490 whole entry): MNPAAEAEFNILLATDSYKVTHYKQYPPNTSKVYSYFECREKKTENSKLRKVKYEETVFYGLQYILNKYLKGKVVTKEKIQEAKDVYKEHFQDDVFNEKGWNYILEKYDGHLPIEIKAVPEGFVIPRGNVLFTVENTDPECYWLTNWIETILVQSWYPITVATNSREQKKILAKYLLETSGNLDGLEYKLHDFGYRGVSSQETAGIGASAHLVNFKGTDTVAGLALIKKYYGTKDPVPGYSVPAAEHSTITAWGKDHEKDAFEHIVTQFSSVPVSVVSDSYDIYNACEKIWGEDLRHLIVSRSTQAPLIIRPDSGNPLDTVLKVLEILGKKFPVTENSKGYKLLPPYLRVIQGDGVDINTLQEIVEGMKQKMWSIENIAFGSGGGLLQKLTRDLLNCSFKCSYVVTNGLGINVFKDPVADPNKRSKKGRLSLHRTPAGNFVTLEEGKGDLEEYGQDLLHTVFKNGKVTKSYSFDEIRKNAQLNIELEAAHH
Description: Inhibition of C-terminal His-tagged human recombinant NAMPT using FK866 or isoindoline urea-based Oregon green (488) probe incubated for 3 hrs by TR-FRET assay

Cytochrome P450 2C9, sequence (P11712 whole entry): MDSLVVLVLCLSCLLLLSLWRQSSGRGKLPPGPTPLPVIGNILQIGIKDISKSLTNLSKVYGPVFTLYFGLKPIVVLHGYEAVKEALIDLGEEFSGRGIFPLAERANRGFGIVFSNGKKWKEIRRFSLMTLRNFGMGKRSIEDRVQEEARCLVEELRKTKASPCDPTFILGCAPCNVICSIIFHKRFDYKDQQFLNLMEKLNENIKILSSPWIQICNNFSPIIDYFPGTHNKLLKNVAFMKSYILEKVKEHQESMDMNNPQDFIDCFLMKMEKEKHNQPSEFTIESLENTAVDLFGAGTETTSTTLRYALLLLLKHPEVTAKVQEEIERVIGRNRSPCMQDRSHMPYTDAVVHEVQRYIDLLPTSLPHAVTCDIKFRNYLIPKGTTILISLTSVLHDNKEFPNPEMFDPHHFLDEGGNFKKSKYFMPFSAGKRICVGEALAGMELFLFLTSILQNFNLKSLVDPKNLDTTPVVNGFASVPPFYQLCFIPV
Cytochrome P450 3A4, sequence (P08684 whole entry): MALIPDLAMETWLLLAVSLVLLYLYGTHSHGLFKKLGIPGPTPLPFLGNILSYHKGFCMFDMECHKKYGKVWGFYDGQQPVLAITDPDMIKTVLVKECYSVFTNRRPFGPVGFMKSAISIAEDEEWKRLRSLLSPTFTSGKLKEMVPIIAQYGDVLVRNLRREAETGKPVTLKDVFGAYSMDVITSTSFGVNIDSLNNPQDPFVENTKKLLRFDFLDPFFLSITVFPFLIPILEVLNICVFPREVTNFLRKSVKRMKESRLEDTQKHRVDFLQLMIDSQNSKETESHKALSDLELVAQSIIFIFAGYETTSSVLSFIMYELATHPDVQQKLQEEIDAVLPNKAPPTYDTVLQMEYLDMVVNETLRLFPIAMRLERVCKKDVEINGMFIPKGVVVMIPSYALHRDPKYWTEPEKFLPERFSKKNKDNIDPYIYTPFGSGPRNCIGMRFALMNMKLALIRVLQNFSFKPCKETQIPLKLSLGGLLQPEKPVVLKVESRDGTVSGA

Row | Structure (SMILES) | IC50 ([1]; Homo sapiens, PC-3, 120 h) | CL free [2] | CL free [3] | IC50 ([1]; pc-3) | solubility [12] | other results
1 | O=C(NCCCCC1CCN(C(=O)c2ccccc2)CC1)N1Cc2ccccc2C1 | 8.4 nM | 280 L/h/kg | 19 L/h/kg |  |  | 
2 | O=C(NC[C@@H]1CCOC1)c1ccc(NC(=O)N2Cc3ccccc3C2)cc1 |  |  |  | 56 nM | 17 µM (≈ 6.21 µg/mL) | IC50 [4]: > 20 µM; IC50 [5]: > 20 µM; CL free [6]: < 2.8 L/h/kg; half-life [7]: 180 min; clearance [8]: 4.33 mL/min/kg; CL free [9]: 1.7 L/h/kg; bioavailability [10]: 59%; inhibition in vivo at 15 mg/kg/day [11]: 78%; TGI [13]: Active; TGI [14]: Active; TGI [15]: Active; TGI [16]: Active; TGI [17]: Active
3 | O=C(NCC1CCOC1)c1ccc(NC(=O)N2Cc3ccccc3C2)cc1 (centres undefined) |  | 5 L/h/kg | 1.6 L/h/kg | 68 nM | < 5 µM | 
4 | O=C(NCCCc1ccccc1)c1ccc(NC(=O)N2Cc3ccccc3C2)cc1 | 21 nM |  | 1060 L/h/kg |  | < 5 µM | 
5 | N#CN=C(NCCCCCCOc1ccc(Cl)cc1)Nc1ccncc1 [CHS-828] | 4.4 nM | 81.8 L/h/kg | 34 L/h/kg |  | < 5 µM | 
6 | CC(C)(O)CC(=O)N1CCC(c2ccc(NC(=O)N3Cc4ccc(F)cc4C3)cc2)CC1 | 3.2 nM | 8.6 L/h/kg | 5.7 L/h/kg |  |  | Ki [18]: 2.5 nM
7 | CC(C)CCNC(=O)c1ccc(NC(=O)N2Cc3ccc(C(F)(F)F)cc3C2)cc1 |  |  |  | > 10000 nM |  | 
8 | O=C(/C=C/c1cccnc1)NCCCCC1CCN(C(=O)c2ccccc2)CC1 [DAPORINAD] | 5.7 nM | 15.5 L/h/kg | 5.5 L/h/kg |  | < 5 µM | 
9 | CCCNC(=O)c1ccc(NC(=O)N2Cc3ccccc3C2)cc1 |  | 4.3 L/h/kg | 3.4 L/h/kg | 880 nM | < 5 µM | 
10 | O=C(Nc1ccc(S(=O)(=O)c2ccccc2)cc1)N1Cc2ccccc2C1 | 30 nM | 22 L/h/kg | 4.4 L/h/kg |  |  | Ki [18]: 21 nM
11 | CC(C)CCNC(=O)c1ccc(NC(=O)N2Cc3ccc(CO)cc3C2)cc1 | 1.4 nM |  |  |  |  | 
12 | CC(C)C(=O)N1CCC(c2ccc(NC(=O)N3Cc4ccccc4C3)cc2)CC1 | 18 nM | 22 L/h/kg | 3.5 L/h/kg |  |  | 
13 | NC(=O)c1ccc(NC(=O)N2Cc3ccccc3C2)cc1 |  | 8.9 L/h/kg | 1.2 L/h/kg | 8000 nM | < 5 µM | 
14 | CC(C)(C)CCNC(=O)c1ccc(NC(=O)N2Cc3ccccc3C2)cc1 |  | 8.7 L/h/kg | 13 L/h/kg | 21 nM | < 5 µM | 
15 | O=C(NCc1ccccc1)c1ccc(NC(=O)N2Cc3ccccc3C2)cc1 | 68 nM | 21 L/h/kg | 3.5 L/h/kg |  | < 5 µM | 
16 | CN1CCC(C(=O)N2CCC(c3ccc(NC(=O)N4Cc5ccc(F)cc5C4)cc3)CC2)CC1 | 5.6 nM | 16 L/h/kg | 2.5 L/h/kg |  |  | Ki [18]: 9.4 nM
17 | CC(C)CCNC(=O)c1ccc(NC(=O)N2Cc3ccccc3C2)nc1 |  | 17 L/h/kg | 3.2 L/h/kg | 14 nM |  | 
18 | CC(C)CCNC(=O)c1ccc(NC(=O)N2Cc3ccccc3C2)cn1 |  | 75 L/h/kg | 13 L/h/kg | 730 nM |  | 
19 | O=C(Nc1ccc(C2CCN(C(=O)[C@@H]3CCCO3)CC2)cc1)N1Cc2ccc(Cl)cc2C1 | 7.9 nM | 35 L/h/kg | 13 L/h/kg |  |  | Ki [18]: 1.7 nM
20 | O=C(NCc1ccc(S(=O)(=O)c2ccccc2)cc1)N1Cc2ccccc2C1 | > 10000 nM | 220 L/h/kg | 39 L/h/kg |  |  | 
21 | CC1(C(=O)N2CCC(c3ccc(NC(=O)N4Cc5ccccc5C4)cc3)CC2)COC1 | 15 nM | 8.7 L/h/kg | 3 L/h/kg |  |  | Ki [18]: 5.1 nM
22 | CC(C)CCNC(=O)c1ccc(NC(=O)N2Cc3ccc(F)cc3C2)cc1 |  |  |  | 6.5 nM |  | 
23 | O=C(NCC1CCCOC1)c1ccc(NC(=O)N2Cc3ccccc3C2)cc1 (centres undefined) | 17 nM | 4.5 L/h/kg | 1.8 L/h/kg |  | < 5 µM | 
24 | COc1ccc2c(c1)CN(C(=O)Nc1ccc(C(=O)NCCC(C)C)cc1)C2 |  |  |  | > 10000 nM |  | 

Source: ChEMBL document CHEMBL4033748, “SAR and characterization of non-substrate isoindoline urea inhibitors of nicotinamide phosphoribosyltransferase (NAMPT)” (Bioorg Med Chem Lett, 2017)
